Results: patent publication US9695155B2, “Herbicidal substituted pyrimidinyloxy benzene compounds” (E. I. DU PONT DE NEMOURS AND COMPANY, priority 2013, dated 2017)

Assays:
wild oat = test: Test D postemergence; assay type: in vivo, Avena fatua; conditions: Avena fatua, post-emergence, scale 0 to 100 (0 no effect, 100 complete control), read-out: Plant response rating, Oat, Wild
Text: (§1) Seeds of plant species selected from bluegrass (annual bluegrass, Poa annua), blackgrass (Alopecurus myosuroides), canarygrass (littleseed canarygrass, Phalaris minor), chickweed (common chickweed, Stellaria media), galium (catchweed bedstraw, Galium aparine), bromegrass, downy (downy bromegrass, Bromus tectorum), field poppy (Papaver rhoeas), field violet (Viola arvensis), green foxtail (Setaria viridis), deadnettle (henbit deadnettle, Lamium amplexicaule), Italian ryegrass (Lolium multiflorum), kochia (Kochia scoparia), lambsquarters (Chenopodium album), oilseed rape (Brassica napus), pigweed (Amaranthus retroflexus), chamomile (scentless chamomile, Matricaria inodora), Russian thistle (Salsola kali), speedwell (bird's-eye speedwell, Veronica persica), spring barley (Hordeum vulgare), spring wheat (Triticum aestivum), wild buckwheat (Polygonum convolvulus), wild mustard (Sinapis arvensis), wild oat (Avena fatua), wild radish (Raphanus raphanistrum), windgrass (Apera spica-venti), winter barley (Hordeum vulgare), and winter wheat (Triticum aestivum) were planted into a silt loam soil and treated preemergence with test chemicals formulated in a non-phytotoxic solvent mixture which included a surfactant.
(§2) At the same time, these species were planted in pots containing Redi-Earth® planting medium (Scotts Company, 14111 Scottslawn Road, Marysville, Ohio 43041) comprising spaghnum peat moss, vermiculite, wetting agent and starter nutrients and treated with postemergence applications of the test chemicals formulated in the same manner. Plants ranged in height from 2 to 18 cm (1- to 4-leaf stage). Treated plants and controls were maintained in a controlled growth environment for 7 to 21 days after which time all species were compared to controls and visually evaluated. Plant response ratings, summarized in Table D, are based on a scale of 0 to 100 where 0 is no effect and 100 is complete control. A dash (-) response means no test result.

chickweed = test: Test D postemergence; assay type: in vivo, Stellaria media; conditions: Stellaria media, post-emergence, scale 0 to 100 (0 no effect, 100 complete control), read-out: Plant response rating, Chickweed
Text: as §1, §2

Italian ryegrass [1] = test: Test D postemergence; assay type: in vivo, Lolium multiflorum; conditions: Lolium multiflorum, post-emergence, scale 0 to 100 (0 no effect, 100 complete control), read-out: Plant response rating, Ryegrass, Italian
Text: as §1, §2

kochia = test: Test D preemergence; assay type: in vivo, Kochia scoparia; conditions: Bassia scoparia, pre-emergence, scale 0-100, read-out: Plant response rating, Kochia
Text: as §1, §2

spring wheat = test: Test D preemergence; assay type: in vivo, Triticum aestivum; conditions: Triticum aestivum, pre-emergence
Text: as §1, §2

winter wheat = test: Test D preemergence; assay type: in vivo, Triticum aestivum; conditions: Triticum aestivum, pre-emergence
Text: as §1, §2

chamomile = test: Test D postemergence; assay type: in vivo, Matricaria inodora; conditions: Tripleurospermum inodorum, post-emergence, scale 0 to 100 (0 no effect, 100 complete control), read-out: Plant response rating, Chamomile
Text: as §1, §2

wild radish = test: Test D preemergence; assay type: in vivo, Raphanus raphanistrum; conditions: Raphanus raphanistrum, pre-emergence
Text: as §1, §2

spring barley = test: Test D preemergence; assay type: in vivo, Hordeum vulgare; conditions: Hordeum vulgare, pre-emergence, scale 0-100, read-out: Plant response rating, Barley, Spring
Text: as §1, §2

winter barley = test: Test D preemergence; assay type: in vivo, Hordeum vulgare; conditions: Hordeum vulgare, pre-emergence, scale 0-100, read-out: Plant response rating, Barley, Winter
Text: as §1, §2

galium = test: Test D preemergence; assay type: in vivo, Galium aparine; conditions: Galium, pre-emergence, scale 0-100, read-out: Plant response rating, Galium
Text: as §1, §2

Italian ryegrass [2] = test: Test D preemergence; assay type: in vivo, Lolium multiflorum; conditions: Lolium multiflorum, pre-emergence
Text: as §1, §2

For N#Cc1cccc(Oc2ncc(Cl)cn2)c1-n1cc(Br)cn1 [Compound 52, 2-(4-bromo-1H-pyrazol-1-yl)-3-[(5-chloro-2-pyrimidinyl)oxy]benzonitrile], the pest or weed control at 31 g/ha (wild oat; 31 g ai/ha) was 20%, the pest or weed control at 62 g/ha (wild oat; 62 g ai/ha) was 35% and the pest or weed control at 125 g/ha (wild oat; 125 g ai/ha) was 30%. For the same compound, the pest or weed control at 250 g/ha (wild oat; 250 g ai/ha) was 35%, the pest or weed control at 31 g/ha (chickweed; 31 g ai/ha) was 60% and the pest or weed control at 62 g/ha (chickweed; 62 g ai/ha) was 70%. It also gave a pest or weed control at 125 g/ha (chickweed; 125 g ai/ha) of 85%, a pest or weed control at 250 g/ha (chickweed; 250 g ai/ha) of 90% and a pest or weed control at 31 g/ha (Italian ryegrass [1]; 31 g ai/ha) of 5%. The pest or weed control at 62 g/ha (Italian ryegrass [1]; 62 g ai/ha) was 5%, the pest or weed control at 125 g/ha (Italian ryegrass [1]; 125 g ai/ha) was 20% and the pest or weed control at 250 g/ha (Italian ryegrass [1]; 250 g ai/ha) was 35%. It also gave a pest or weed control at 31 g/ha (kochia; 31 g ai/ha) of 95%, a pest or weed control at 62 g/ha (kochia; 62 g ai/ha) of 95% and a pest or weed control at 125 g/ha (kochia; 125 g ai/ha) of 95%. The pest or weed control at 250 g/ha (kochia; 250 g ai/ha) was 95%, the plant injury at 31 g/ha (spring wheat; 31 g ai/ha, scale 0 (no effect) to 100 (complete control), read-out: Plant response rating, Wheat, Spring) was 0% and the plant injury at 62 g/ha (spring wheat; 62 g ai/ha, scale 0-100, read-out: Plant response rating, Wheat, Spring) was 0%. The plant injury at 125 g/ha (spring wheat; 125 g ai/ha, scale 0-100, read-out: Plant response rating, Wheat, Spring) was 0%, the plant injury at 250 g/ha (spring wheat; 250 g ai/ha, scale 0-100, read-out: Plant response rating, Wheat, Spring) was 30% and the plant injury at 31 g/ha (winter wheat; 31 g ai/ha, scale 0 (no effect) to 100 (complete control), read-out: Plant response rating, Wheat, Winter) was 0%. The plant injury at 62 g/ha (winter wheat; 62 g ai/ha, scale 0-100, read-out: Plant response rating, Wheat, Winter) was 0%, the plant injury at 125 g/ha (winter wheat; 125 g ai/ha, scale 0-100, read-out: Plant response rating, Wheat, Winter) was 25% and the plant injury at 250 g/ha (winter wheat; 250 g ai/ha, scale 0-100, read-out: Plant response rating, Wheat, Winter) was 35%. It also gave a pest or weed control at 31 g/ha (chamomile; 31 g ai/ha) of 10%, a pest or weed control at 62 g/ha (chamomile; 62 g ai/ha) of 15% and a pest or weed control at 125 g/ha (chamomile; 125 g ai/ha) of 20%. For the same compound, the pest or weed control at 250 g/ha (chamomile; 250 g ai/ha) was 15%, the pest or weed control at 31 g/ha (wild radish; 31 g ai/ha, scale 0 (no effect) to 100 (complete control), read-out: Plant response rating, Radish, Wild) was 30% and the pest or weed control at 62 g/ha (wild radish; 62 g ai/ha, scale 0-100, read-out: Plant response rating, Radish, Wild) was 80%. It also gave a pest or weed control at 125 g/ha (wild radish; 125 g ai/ha, scale 0-100, read-out: Plant response rating, Radish, Wild) of 95%, a pest or weed control at 250 g/ha (wild radish; 250 g ai/ha, scale 0-100, read-out: Plant response rating, Radish, Wild) of 100% and a plant injury at 31 g/ha (spring barley; 31 g ai/ha) of 5%. It also gave a plant injury at 62 g/ha (spring barley; 62 g ai/ha) of 10%, a plant injury at 125 g/ha (spring barley; 125 g ai/ha) of 10% and a plant injury at 250 g/ha (spring barley; 250 g ai/ha) of 50%. The plant injury at 31 g/ha (winter barley; 31 g ai/ha) was 0%, the plant injury at 62 g/ha (winter barley; 62 g ai/ha) was 0% and the plant injury at 125 g/ha (winter barley; 125 g ai/ha) was 5%. For the same compound, the plant injury at 250 g/ha (winter barley; 250 g ai/ha) was 35%, the pest or weed control at 31 g/ha (galium; 31 g ai/ha) was 10% and the pest or weed control at 62 g/ha (galium; 62 g ai/ha) was 20%. It also gave a pest or weed control at 125 g/ha (galium; 125 g ai/ha) of 75%, a pest or weed control at 250 g/ha (galium; 250 g ai/ha) of 70% and a pest or weed control at 31 g/ha (Italian ryegrass [2]; 31 g ai/ha, scale 0 (no effect) to 100 (complete control), read-out: Plant response rating, Ryegrass, Italian) of 0%. For the same compound, the pest or weed control at 62 g/ha (Italian ryegrass [2]; 62 g ai/ha, scale 0-100, read-out: Plant response rating, Ryegrass, Italian) was 0%, the pest or weed control at 125 g/ha (Italian ryegrass [2]; 125 g ai/ha, scale 0-100, read-out: Plant response rating, Ryegrass, Italian) was 5% and the pest or weed control at 250 g/ha (Italian ryegrass [2]; 250 g ai/ha, scale 0-100, read-out: Plant response rating, Ryegrass, Italian) was 50%.
